The values below come from ChEMBL document CHEMBL1201862, “PubChem BioAssay data set” (2004).

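All cell lines were grown in 96-well plates and treated with compound for 48 hours. GI50 is the concentration that inhibits growth by half.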 The source made the active and inactive calls. No stated cut-off is given here; in the data, active = GI50 up to about 1.1 µM and inactive = higher. Some results are limits rather than exact numbers.

Common to all, as to assay: NCI-60 cell line screen, 48 h
In test [1] the test system is NCI-H23.
For test [2], the system named is HL-60.
Test [3] deals with TK-10.
Test [4] relates to OVCAR-3.
For test [5], the system named is SK-MEL-5.
Test [6] relates to KM12.
In test [7] the test system is RXF 393.
In test [8] the test system is K562.
The test system of test [9] is SK-MEL-2.
Test [10] deals with COLO 205.
The test system of test [11] is SF-539.
Test [12] has as its system NCI-H226.
Test [13] has as its system UACC-62.
For test [14], the system named is HCC 2998.
Test [15] relates to HCT-116.
Test [16] deals with A549.
For test [17], the system named is MDA-MB-231.
In test [18] the test system is NCI/ADR-RES.
Test [19] relates to PC-3.

Consider `Clc1ccc(CN2COc3c(cc(Cl)c4cccnc34)C2)cc1`, for which the GI50 in test [1] was 2.57 µM (inactive); in test [2], 0.546 µM (active); in [3] it was 4.57 µM (inactive); in [4], 1.99 µM (inactive); in [5], 2.26 µM (inactive); in [6] it was 2.37 µM (inactive). Also, the GI50 in test [7] was 1.58 µM (inactive); in test [8] it was 1.52 µM (inactive); in [9] it was 1.85 µM (inactive); in [10] it was 16.2 µM (inactive); in [11], 2.03 µM (inactive); in [12], 4.06 µM (inactive). Further, the GI50 in [13] is 1.55 µM (inactive); in test [14] it was 4.3 µM (inactive); in test [15], 2.15 µM (inactive); in test [16], 2.39 µM (inactive).
Consider `CSc1nc(NC2CC2)c2c(n1)Sc1nc3ccccc3n1N=C2`, for which the GI50 is 21.4 µM (inactive) in test [1]; 25.1 µM (inactive) in test [3]; 17.8 µM (inactive) in [17]; 17.3 µM (inactive) in [4]; 17 µM (inactive) in test [5]; 56.2 µM (inactive) in test [6]. Also, the GI50 is 20.3 µM (inactive) in test [18]; > 100 µM (inactive) in test [8]; 30.3 µM (inactive) in [9]; 41.9 µM (inactive) in test [10]; 12.2 µM (inactive) in test [11]; 16.8 µM (inactive) in test [12]. Further, the GI50 was 29.5 µM (inactive) in test [19]; 17.9 µM (inactive) in [13]; 27.5 µM (inactive) in test [14]; 9.73 µM (inactive) in test [15]; 18.7 µM (inactive) in test [16].
As to `Oc1ccc([I+]c2ccccc2)cc1O`, the GI50 in test [1] is 26.3 µM (inactive); in [2], 16 µM (inactive); in [3] it was > 100 µM (inactive); in [17] it was 46.7 µM (inactive); in test [4], 28.1 µM (inactive); in test [5], 36 µM (inactive). Also, the GI50 in test [6] was 24.8 µM (inactive); in [7], 52.2 µM (inactive); in test [18], 28.9 µM (inactive); in [8] it was 21.6 µM (inactive); in test [10] it was 34.4 µM (inactive); in test [11], 29.2 µM (inactive). Moreover, the GI50 is > 100 µM (inactive) in test [12]; 22.3 µM (inactive) in test [19]; 23.9 µM (inactive) in test [14]; 34.4 µM (inactive) in test [15]; 24.9 µM (inactive) in test [16].
As for `Nc1ncnc2c1ncn2C1OC(CO)C(O)C(O)C1O` (configuration not stated), the GI50 in test [1], in test [2], in test [3], in [17], in test [4] and in test [5] was > 100 µM (inactive) throughout. For the same compound, the GI50 in [6], in test [18], in test [8], in [9], in [10] and in test [11] was > 100 µM (inactive) each time. For the same compound, the GI50 in test [12], in test [19], in [14], in test [15] and in test [16] was > 100 µM (inactive) throughout.
In the case of `COC(=O)C1C(O)CC(c2ccccn2)N(Cc2ccccc2)C1c1ccccn1` (configuration not stated), the GI50 is > 100 µM (inactive) in test [1]; 15.6 µM (inactive) in test [2]; > 100 µM (inactive) in test [3]; > 100 µM (inactive) in test [4]; 84.3 µM (inactive) in test [5]; > 100 µM (inactive) in test [6]. The GI50 in test [7] was > 100 µM (inactive); in test [8], 44.4 µM (inactive); in test [9], > 100 µM (inactive); in test [10], > 100 µM (inactive); in test [11], > 100 µM (inactive); in test [12] it was > 100 µM (inactive). Besides, the GI50 in test [13] was > 100 µM (inactive); in [14], > 100 µM (inactive); in test [15], 94.4 µM (inactive); in [16], > 100 µM (inactive).
`Cn1nc(S(N)(=O)=O)s/c1=N/S(=O)(=O)c1ccc(N)cc1`: the GI50 in test [1], in test [3], in test [17], in [4], in test [6] and in test [7] was > 100 µM (inactive) each time. Moreover, the GI50 in test [18], in test [9], in [10], in test [11], in test [12] and in test [19] was > 100 µM (inactive) in each case. The GI50 in [13], in test [14] and in [16] was > 100 µM (inactive) throughout.
With `CC1=NN(C(=O)Cc2ccccc2)C(=O)/C1=C\c1ccc(O)cc1`, the GI50 in test [1], in [2], in test [3], in [4], in [5] and in [6] was > 100 µM (inactive) throughout. For the same compound, the GI50 in test [7], in [8], in test [9], in [10], in [11] and in [12] was > 100 µM (inactive) throughout. Further, the GI50 in test [13], in test [14], in test [15] and in test [16] was > 100 µM (inactive) each time.
On to `CCc1cccc(CC)c1NC(=O)/C(Cl)=C(/Cl)C(=O)O`, for which the GI50 in [1] was 38.3 µM (inactive); in test [2], 5.05 µM (inactive); in [3], 34 µM (inactive); in [4], 32.8 µM (inactive); in test [5], 36.7 µM (inactive); in test [6], > 100 µM (inactive). Moreover, the GI50 in test [7] was 28.9 µM (inactive); in [8], 11.6 µM (inactive); in test [9], > 100 µM (inactive); in test [10], 13.9 µM (inactive); in test [11], 33 µM (inactive); in [12], > 100 µM (inactive). In addition, the GI50 in test [13] is 37.4 µM (inactive); in test [14], > 48.2 µM (inactive); in test [15], 25 µM (inactive); in test [16] it was > 69.5 µM (inactive).
For `c1ccc(-c2[nH]c(-c3ccccc3)c(-c3cnccn3)c2-c2cnccn2)cc1`, the GI50 in test [1] was > 100 µM (inactive); in test [2], > 100 µM (inactive); in [3] it was > 100 µM (inactive); in [4] it was > 100 µM (inactive); in [5], > 100 µM (inactive); in test [6] it was 30.3 µM (inactive). The GI50 in test [7], in [8], in [9], in [10], in test [11] and in test [12] was > 100 µM (inactive) in each case. For the same compound, the GI50 in test [13], in test [14], in [15] and in test [16] was > 100 µM (inactive) each time.
For the compound `CC1CCOc2ccc(cc2)/C=N\c2ccc(cc2)CCc2ccc(cc2)/N=C\c2ccc(cc2)OCC1`, the GI50 in test [1] was > 100 µM (inactive); in test [17] it was > 100 µM (inactive); in [4] it was > 100 µM (inactive); in test [5], > 100 µM (inactive); in test [6], > 100 µM (inactive); in test [7], 35.6 µM (inactive). For the same compound, the GI50 in test [18], in test [8], in [9], in test [10], in [11] and in test [12] was > 100 µM (inactive) in each case. Besides, the GI50 in [19], in test [13], in test [14], in test [15] and in [16] was > 100 µM (inactive) in each case.
`COc1ccc(C(O)c2nccn2C)c(OC)c1` (configuration not stated): the GI50 is > 100 µM (inactive) in test [1]; > 100 µM (inactive) in [2]; > 100 µM (inactive) in test [3]; > 100 µM (inactive) in [4]; 86.3 µM (inactive) in test [5]; > 100 µM (inactive) in test [6]. Also, the GI50 in [7], in [18], in [8], in [9], in [10] and in [11] was > 100 µM (inactive) each time. Besides, the GI50 in test [12], in [19], in test [13], in test [14], in test [15] and in test [16] was > 100 µM (inactive) each time.
As to `COC(=O)c1ccc(Cc2ccc(C(=O)OC)o2)o1`, the GI50 in test [1], in test [2], in test [3], in [4], in test [5] and in [6] was > 378 µM (inactive) throughout. Besides, the GI50 in [7] is 282 µM (inactive); in test [8], > 378 µM (inactive); in test [9], > 378 µM (inactive); in test [10] it was > 378 µM (inactive); in test [11] it was > 378 µM (inactive); in [12], > 378 µM (inactive). Further, the GI50 in test [13], in [14], in test [15] and in test [16] was > 378 µM (inactive) in each case.
